From ChEMBL document CHEMBL1201862, “PubChem BioAssay data set” (2004) come the findings set out here.

Assay [1] has as its target Peroxisome proliferator-activated receptor gamma/Nuclear receptor coactivator 3 (Homo sapiens, UniProt P37231). Kind of assay: TR-FRET dose response biochemical High Throughput Screening assay for agonists of the steroid receptor coactivator 3 (SRC-3) recruitment by the peroxisome proliferator-activated receptor gamma (PPAR gamma): non-selective agonists. [Related pubchem assays: 1301 (Confirmation screen.), 1048 (Primary screen.)]. The class given is functional. On the technique in general: TR-FRET usually uses a lanthanide donor and a delayed reading to cut background.

Assay [2] concerns the target Peroxisome proliferator-activated receptor gamma/Nuclear receptor coactivator 1 (Homo sapiens, UniProt P37231). Kind of assay: TR-FRET dose response biochemical High Throughput Screening assay for agonists of the steroid receptor coactivator 1 (SRC-1) recruitment by the peroxisome proliferator-activated receptor gamma (PPAR gamma): non-selective agonists. [Related pubchem assays (depositor defined):AID1300, AID1808, AID504735, AID631]. It is filed as protein assay.

The target in assay [3] is Peroxisome proliferator-activated receptor gamma/Nuclear receptor coactivator 2 (Homo sapiens, UniProt P37231). Kind of assay: TR-FRET dose response biochemical High Throughput Screening assay for agonists of the steroid receptor coactivator 2 (SRC-2) recruitment by the peroxisome proliferator-activated receptor gamma (PPAR gamma): non-selective agonists. [Related pubchem assays: 1297, 1032 ]. The class given is functional.

For assay [4], the target named is Voltage-gated inwardly rectifying potassium channel KCNH2 (Homo sapiens, UniProt Q12809). Kind of assay: hERG protection from proarrhythmic block, potency, dose response, cell-based, thallium flux (AID 2121). It is filed as ADME. Background: hERG is a cardiac potassium channel; its block is linked to QT prolongation.
In assay [5] the target is Sphingosine 1-phosphate receptor 4 (Homo sapiens, UniProt O95977). Kind of assay: Fluorescence dose response cell-based high throughput screening assay for agonists of the Sphingosine 1-Phosphate Receptor 4 (S1P4). [Related pubchem assays: 1509 (Primary screen.), 1523 (Confirmation screen in triplicates.)]. It is filed as functional.
Assay [6] is described as follows: cytotoxicity in HEK-293T cells, dose response, cytotoxicity control for TCR NF-kB inhibitor project, luminescence, T-cell screen hits (AID 489026).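 Further: cells exposed to compound about 14 hours before the viability readout.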 It is filed as functional, cell-based.
The subject of assay [7] is BJ. Kind of assay: cytotoxicity toward BJ-TERT-LT-ST fibroblasts, dose response, cell-based, RAS-independent, luminescence (AID 1935).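 Further: BJ fibroblasts immortalized with TERT plus LT and ST oncogenes.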 It is filed as functional. The following applies: Homo sapiens.
Assay [8] concerns the target T1, DNA repair and recombination protein RAD54-like (Homo sapiens, UniProt Q92698).
T1 sequence (Q92698 whole entry): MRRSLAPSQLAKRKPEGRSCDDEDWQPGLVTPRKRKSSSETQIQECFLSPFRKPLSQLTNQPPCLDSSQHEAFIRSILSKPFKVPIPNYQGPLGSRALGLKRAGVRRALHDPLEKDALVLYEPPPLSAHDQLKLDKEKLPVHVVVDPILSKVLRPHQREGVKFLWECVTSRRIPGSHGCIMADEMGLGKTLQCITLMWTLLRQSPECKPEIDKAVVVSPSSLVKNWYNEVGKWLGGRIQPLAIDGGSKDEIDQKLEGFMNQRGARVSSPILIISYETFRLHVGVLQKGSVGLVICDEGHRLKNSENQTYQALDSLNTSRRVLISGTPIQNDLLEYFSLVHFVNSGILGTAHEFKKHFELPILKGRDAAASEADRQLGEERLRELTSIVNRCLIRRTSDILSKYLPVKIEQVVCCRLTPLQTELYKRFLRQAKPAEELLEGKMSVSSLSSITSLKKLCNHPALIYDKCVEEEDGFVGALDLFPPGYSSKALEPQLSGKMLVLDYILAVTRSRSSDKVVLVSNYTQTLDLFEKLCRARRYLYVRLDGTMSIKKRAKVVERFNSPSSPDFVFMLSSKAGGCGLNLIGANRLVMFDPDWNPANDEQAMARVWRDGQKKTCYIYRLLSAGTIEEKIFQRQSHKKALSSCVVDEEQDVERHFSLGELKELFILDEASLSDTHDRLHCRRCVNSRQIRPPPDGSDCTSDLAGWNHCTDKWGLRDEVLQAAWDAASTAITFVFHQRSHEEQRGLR
Kind of assay: inhibitors of human RAD54 branch migration, confirmation, biochemical, fluorescence, cherry-picked samples, dose series (AID 651657). It is filed as functional.

Assay [9] concerns the target T2, DNA repair protein RAD52 homolog (Homo sapiens, UniProt P43351).
T2 sequence (P43351 whole entry): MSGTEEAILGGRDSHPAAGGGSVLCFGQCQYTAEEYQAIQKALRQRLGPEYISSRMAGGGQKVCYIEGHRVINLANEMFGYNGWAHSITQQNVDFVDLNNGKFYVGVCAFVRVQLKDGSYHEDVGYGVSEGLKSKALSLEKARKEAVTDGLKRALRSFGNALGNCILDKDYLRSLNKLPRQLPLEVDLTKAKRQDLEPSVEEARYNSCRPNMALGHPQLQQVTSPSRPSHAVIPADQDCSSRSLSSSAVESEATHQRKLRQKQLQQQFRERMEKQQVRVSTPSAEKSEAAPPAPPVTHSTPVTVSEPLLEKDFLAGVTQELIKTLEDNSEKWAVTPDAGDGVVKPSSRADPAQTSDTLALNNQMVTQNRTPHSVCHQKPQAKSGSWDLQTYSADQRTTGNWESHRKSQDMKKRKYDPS
The class given is functional, biochemical.

Assay [10] is described as follows: MDA-MB-231 cell growth inhibition, dose response, cytotoxicity control for RAD54 inhibitor project, CellTiter-Glo luminescence, cherry-pick (AID 651692). It is filed as functional, cell-based. On the technique in general: Cellular ATP, detected with luciferase, serves as a proxy for viable cell number.
Assay [11] can be described thus: cytotoxicity toward DRD oncogenic fibroblasts, dose response, cell-based, non-viral oncogenic, luminescence (AID 1934). The following applies: Homo sapiens. The class given is functional.
In assay [12] the target is Sphingosine 1-phosphate receptor 1 (Homo sapiens, UniProt P21453). Kind of assay: Fluorescence-based counterscreen assay for S1P4 agonists: Cell-based dose response high throughput screening assay to identify agonists of the Sphingosine 1-Phosphate Receptor 1 (S1P1). [Related pubchem assays (depositor defined):AID1509, AID1523, AID1801, AID463107, AID463118, AID463119, AID463122, AID463123, AID463129, AID463225, AID504400, AID504460]. It is filed as functional.

A short description of assay [13]: Luminescence-based cell-based high throughput dose response assay to identify activators of the DAF-12 from the parasite S. stercoralis (ssDAF-12). It is filed as functional.
The test system of assay [14] is BJ. Kind of assay: cells. It is filed as functional, cell-based. The settings on record: Homo sapiens.
The test system of assay [15] is BJ. Kind of assay: cytotoxicity toward Ras-transformed BJeLR fibroblasts, dose response, cell-based, alamar blue fluorescence, cherrypicked samples (AID 2631).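 Further: confirmatory dose-response assay in RAS-dependent BJ fibroblasts engineered with TERT, LT and ST, with cytotoxicity read by fluorescence.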 The class given is functional. The following applies: Homo sapiens.
The subject of assay [16] is BJ. Kind of assay: cytotoxicity toward BJ-TERT fibroblasts, dose response, cell-based, RAS-independent, luminescence (AID 1933). The settings on record: Homo sapiens. It is filed as functional.
Assay [17] concerns the target T3, Polyadenylate-binding protein 1 (Homo sapiens, UniProt P11940). Kind of assay: PABP1 MLLE–PAM2 binding inhibitor potency, dose response, biochemical, fluorescence polarization, FITC-PAM2 peptide (AID 602259). The following applies: read-out: IC50_Mean. It is filed as functional.
Assay [18] addresses Paired box protein Pax-8 (Homo sapiens, UniProt Q06710). Kind of assay: inhibitors of PAX8-driven TPO luciferase reporter, dose response, RMG-I cells, cherry-pick (AID 687027).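 Further: luciferase reporter driven by Pax8 target thyroperoxidase promoter measured by SteadyGlo luminescence.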 It is filed as functional, cell-based.
Assay [19] addresses T3, Polyadenylate-binding protein 1. Kind of assay: PABP1 MLLE–PAM2 interaction inhibitors, dose response, miRNA deadenylation inhibitor project, biochemical, fluorescence polarization, Cy5-PAM2 peptide, secondary (AID 602260). The class given is functional. The settings on record: read-out: IC50_Mean.
For assay [20], the target named is T4, Cannabinoid receptor 2 (Homo sapiens, UniProt P34972). Kind of assay: SAR analysis of agonists of the Cannabinoid Receptor 2 using an Image-Based Assay - Set 3. [Related pubchem assays (depositor defined):AID2013, AID2026]. It is filed as functional.
Assay [21] deals with T4, Cannabinoid receptor 2. Kind of assay: SAR analysis of antagonists of the Cannabinoid Receptor 2 using an Image-Based Assay - Set 3. [Related pubchem assays (depositor defined):AID2013, AID2026]. The class given is functional.
In assay [22] the target is T5, Probable nicotinate-nucleotide adenylyltransferase (Staphylococcus aureus (strain N315), UniProt P65502). The class given is functional, Staphylococcus aureus subsp. aureus N315. The settings on record: read-out: IC50_Mean.
Assay [23] addresses T6, Cannabinoid receptor 1 (Homo sapiens, UniProt P21554). Kind of assay: SAR analysis of agonists of the Cannabinoid Receptor 1 using an Image-Based Assay - Set 4. [Related pubchem assays (depositor defined):AID2013, AID2026]. It is filed as functional.
Assay [24] concerns the target T7, G-protein coupled receptor 35 (Homo sapiens, UniProt Q9HC97). Kind of assay: SAR analysis of Agonists of the GPR35 Receptor using an Image-Based Assay - Set 4. [Related pubchem assays (depositor defined):AID2013, AID2026]. The class given is functional.
The target of assay [25] is T7, G-protein coupled receptor 35. Kind of assay: SAR analysis of Antagonists of the GPR35 Receptor using an Image-Based Assay - Set 6. [Related pubchem assays (depositor defined):AID2013, AID2026]. It is filed as functional.
Assay [26] concerns the target G-protein coupled receptor 55 (Homo sapiens, UniProt Q9Y2T6). Kind of assay: SAR Analysis of Selective Antagonists of GPR55 using an Image-Based Assay - Set 4. [Related pubchem assays (depositor defined):AID2013, AID2026]. It is filed as functional.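 Further: antagonism of response to 5 µM lysophosphatidylinositol agonist.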
Assay [27] deals with T6, Cannabinoid receptor 1. Kind of assay: SAR analysis of antagonists of the Cannabinoid Receptor 1 using an Image-Based Assay - Set 4. [Related pubchem assays (depositor defined):AID2013, AID2026]. The class given is functional.
Assay [28] deals with T5, Probable nicotinate-nucleotide adenylyltransferase. It is filed as functional, Staphylococcus aureus subsp. aureus N315.

The structures appear in SMILES notation. The source made the active and inactive calls. A value given as a limit tells only on which side of the number the result lay.

T4 sequence (P34972 whole entry): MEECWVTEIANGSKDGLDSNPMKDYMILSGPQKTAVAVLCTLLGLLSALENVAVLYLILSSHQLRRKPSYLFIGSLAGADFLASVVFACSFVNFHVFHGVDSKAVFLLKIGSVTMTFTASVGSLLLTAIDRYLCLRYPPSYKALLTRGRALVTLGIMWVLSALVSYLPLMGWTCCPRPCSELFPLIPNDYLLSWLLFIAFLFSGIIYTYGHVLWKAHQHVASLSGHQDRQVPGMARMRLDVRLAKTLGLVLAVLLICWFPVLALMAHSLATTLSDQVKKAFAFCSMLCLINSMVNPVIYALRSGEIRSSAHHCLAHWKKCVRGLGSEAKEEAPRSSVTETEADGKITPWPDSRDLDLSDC
T7 sequence (Q9HC97 whole entry): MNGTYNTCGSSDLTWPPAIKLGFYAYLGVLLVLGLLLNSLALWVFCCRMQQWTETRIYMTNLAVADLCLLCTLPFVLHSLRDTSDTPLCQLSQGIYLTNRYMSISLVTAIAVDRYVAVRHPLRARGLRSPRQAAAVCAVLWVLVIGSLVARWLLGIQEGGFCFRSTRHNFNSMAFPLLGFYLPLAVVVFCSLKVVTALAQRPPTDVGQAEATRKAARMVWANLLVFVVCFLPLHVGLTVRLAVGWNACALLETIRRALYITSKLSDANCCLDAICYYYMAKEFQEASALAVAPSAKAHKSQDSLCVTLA
T6 sequence (P21554 whole entry): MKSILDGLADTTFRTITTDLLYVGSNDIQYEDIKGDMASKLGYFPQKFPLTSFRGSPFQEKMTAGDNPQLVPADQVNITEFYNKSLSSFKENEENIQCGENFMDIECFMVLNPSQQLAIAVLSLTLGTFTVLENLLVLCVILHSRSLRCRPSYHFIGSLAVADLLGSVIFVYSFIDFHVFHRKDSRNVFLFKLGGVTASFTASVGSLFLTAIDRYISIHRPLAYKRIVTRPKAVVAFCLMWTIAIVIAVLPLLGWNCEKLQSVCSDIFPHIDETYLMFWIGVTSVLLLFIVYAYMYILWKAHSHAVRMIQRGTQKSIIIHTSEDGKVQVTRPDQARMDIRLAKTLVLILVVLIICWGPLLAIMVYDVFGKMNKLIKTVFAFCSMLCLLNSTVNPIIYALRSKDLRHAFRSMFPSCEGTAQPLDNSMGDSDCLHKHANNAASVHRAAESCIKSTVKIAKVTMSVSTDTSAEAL
Peroxisome proliferator-activated receptor gamma/Nuclear receptor coactivator 3, sequence (P37231 whole entry): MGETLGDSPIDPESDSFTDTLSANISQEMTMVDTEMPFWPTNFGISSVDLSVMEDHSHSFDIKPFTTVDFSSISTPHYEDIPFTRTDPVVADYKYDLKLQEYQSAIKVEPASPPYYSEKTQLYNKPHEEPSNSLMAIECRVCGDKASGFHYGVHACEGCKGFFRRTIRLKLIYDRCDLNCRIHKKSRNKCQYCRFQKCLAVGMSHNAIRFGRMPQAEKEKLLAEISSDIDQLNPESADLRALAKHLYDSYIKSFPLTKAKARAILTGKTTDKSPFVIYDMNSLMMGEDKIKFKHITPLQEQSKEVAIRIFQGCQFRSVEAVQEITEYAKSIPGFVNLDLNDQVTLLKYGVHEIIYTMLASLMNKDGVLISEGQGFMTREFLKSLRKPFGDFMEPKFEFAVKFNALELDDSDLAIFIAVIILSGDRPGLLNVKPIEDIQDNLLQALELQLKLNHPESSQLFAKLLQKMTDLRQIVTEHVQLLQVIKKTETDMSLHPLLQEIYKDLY
Peroxisome proliferator-activated receptor gamma/Nuclear receptor coactivator 3, sequence (Q9Y6Q9 whole entry, further chain): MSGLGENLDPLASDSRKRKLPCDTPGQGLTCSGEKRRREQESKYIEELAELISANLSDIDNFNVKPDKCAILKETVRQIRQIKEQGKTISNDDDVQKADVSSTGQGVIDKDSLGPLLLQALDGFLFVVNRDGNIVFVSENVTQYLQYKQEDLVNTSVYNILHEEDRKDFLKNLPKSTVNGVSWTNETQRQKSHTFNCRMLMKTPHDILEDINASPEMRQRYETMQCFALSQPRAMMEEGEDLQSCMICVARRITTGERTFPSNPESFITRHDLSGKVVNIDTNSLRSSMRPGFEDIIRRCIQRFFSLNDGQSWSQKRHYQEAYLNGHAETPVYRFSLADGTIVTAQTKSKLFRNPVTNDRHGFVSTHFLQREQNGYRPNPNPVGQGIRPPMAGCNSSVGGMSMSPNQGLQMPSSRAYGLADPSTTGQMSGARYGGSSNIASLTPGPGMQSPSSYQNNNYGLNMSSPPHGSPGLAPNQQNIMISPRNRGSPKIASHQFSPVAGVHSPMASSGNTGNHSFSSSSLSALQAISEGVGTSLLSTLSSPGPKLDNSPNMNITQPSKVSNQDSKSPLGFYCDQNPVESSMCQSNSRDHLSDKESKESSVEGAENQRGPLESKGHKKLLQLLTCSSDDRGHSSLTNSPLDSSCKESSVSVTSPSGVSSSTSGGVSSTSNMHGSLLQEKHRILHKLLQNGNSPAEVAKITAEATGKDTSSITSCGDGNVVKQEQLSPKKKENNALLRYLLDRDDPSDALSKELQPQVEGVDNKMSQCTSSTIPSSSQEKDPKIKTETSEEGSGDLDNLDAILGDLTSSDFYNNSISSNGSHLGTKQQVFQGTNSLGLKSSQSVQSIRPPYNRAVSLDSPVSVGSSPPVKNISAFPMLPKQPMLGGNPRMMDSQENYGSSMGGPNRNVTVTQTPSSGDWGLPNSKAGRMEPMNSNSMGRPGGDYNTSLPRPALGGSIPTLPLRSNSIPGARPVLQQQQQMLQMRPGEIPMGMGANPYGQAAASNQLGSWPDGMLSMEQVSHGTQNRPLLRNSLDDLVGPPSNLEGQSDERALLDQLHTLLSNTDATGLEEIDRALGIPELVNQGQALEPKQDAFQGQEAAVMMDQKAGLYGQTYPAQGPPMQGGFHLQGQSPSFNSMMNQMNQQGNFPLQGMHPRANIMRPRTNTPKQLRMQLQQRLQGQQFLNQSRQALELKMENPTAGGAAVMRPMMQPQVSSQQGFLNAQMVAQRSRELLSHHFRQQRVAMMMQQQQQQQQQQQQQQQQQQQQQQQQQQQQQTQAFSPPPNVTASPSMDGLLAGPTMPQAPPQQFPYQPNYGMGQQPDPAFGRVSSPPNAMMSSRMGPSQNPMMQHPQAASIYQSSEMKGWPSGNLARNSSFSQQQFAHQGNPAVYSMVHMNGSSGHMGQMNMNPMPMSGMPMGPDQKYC
Peroxisome proliferator-activated receptor gamma/Nuclear receptor coactivator 2, sequence (P37231 whole entry): as the sequence (P37231 whole entry) above
Peroxisome proliferator-activated receptor gamma/Nuclear receptor coactivator 2, sequence (Q15596 whole entry, further chain): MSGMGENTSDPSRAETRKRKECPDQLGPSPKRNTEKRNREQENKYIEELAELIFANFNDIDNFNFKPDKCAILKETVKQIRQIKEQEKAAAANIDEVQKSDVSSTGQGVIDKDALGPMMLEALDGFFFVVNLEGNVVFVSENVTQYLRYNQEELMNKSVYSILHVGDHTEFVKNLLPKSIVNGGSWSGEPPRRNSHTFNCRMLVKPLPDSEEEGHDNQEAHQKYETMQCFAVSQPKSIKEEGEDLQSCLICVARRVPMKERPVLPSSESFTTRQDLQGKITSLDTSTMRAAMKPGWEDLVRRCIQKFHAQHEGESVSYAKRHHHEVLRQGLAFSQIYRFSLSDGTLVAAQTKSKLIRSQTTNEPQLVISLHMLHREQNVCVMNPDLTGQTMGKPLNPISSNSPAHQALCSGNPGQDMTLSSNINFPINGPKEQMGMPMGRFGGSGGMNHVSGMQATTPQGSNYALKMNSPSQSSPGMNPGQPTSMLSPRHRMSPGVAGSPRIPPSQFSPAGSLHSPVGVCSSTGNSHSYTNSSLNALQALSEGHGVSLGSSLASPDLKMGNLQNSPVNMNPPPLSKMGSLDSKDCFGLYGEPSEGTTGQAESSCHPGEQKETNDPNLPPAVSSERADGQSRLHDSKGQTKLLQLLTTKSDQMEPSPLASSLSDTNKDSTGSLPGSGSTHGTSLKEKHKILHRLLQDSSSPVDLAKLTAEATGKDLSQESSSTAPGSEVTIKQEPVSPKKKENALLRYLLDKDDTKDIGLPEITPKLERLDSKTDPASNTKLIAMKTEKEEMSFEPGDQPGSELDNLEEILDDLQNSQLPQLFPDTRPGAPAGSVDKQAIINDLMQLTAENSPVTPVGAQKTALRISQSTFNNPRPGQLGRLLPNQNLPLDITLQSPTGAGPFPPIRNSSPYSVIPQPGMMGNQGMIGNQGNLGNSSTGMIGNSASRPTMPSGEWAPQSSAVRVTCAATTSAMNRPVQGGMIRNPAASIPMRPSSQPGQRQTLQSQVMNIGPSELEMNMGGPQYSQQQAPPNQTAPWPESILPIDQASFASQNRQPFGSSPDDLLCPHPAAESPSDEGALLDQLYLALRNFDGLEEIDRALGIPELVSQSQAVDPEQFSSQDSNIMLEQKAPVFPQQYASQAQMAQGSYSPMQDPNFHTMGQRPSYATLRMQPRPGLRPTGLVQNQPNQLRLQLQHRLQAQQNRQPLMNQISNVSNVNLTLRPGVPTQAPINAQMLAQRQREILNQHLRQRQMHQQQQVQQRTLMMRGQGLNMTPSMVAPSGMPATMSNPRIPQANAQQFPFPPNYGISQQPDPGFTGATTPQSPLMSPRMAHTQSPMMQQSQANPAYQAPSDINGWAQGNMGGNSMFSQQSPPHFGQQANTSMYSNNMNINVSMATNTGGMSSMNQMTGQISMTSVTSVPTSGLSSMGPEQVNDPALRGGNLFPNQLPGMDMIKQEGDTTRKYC

In general, EC50 refers to the concentration giving half of the maximal effect. As to `O=C(NN1C(=O)/C(=C/c2nc3ccccc3[nH]2)SC1=S)c1cccc(Cl)c1`, the concentration giving a half-maximal response (EC50) was > 79.4 µM (not active) in [1], > 79.4 µM (inactive) in assay [2], > 79.4 µM (not active) in assay [3] and 7.01 µM (active) in assay [4].
What is called AC50 is the midpoint of the concentration-response curve, whichever way the signal moves. In the case of `O=C1c2cccc3cc([N+](=O)[O-])cc(c23)C(=O)N1CCN1CCCC1` [PINAFIDE], the EC50 in assay [5] was > 5.53 µM (not active); in assay [7], > 150 µM (inconclusive); in assay [11] it was 5.03 µM (inconclusive); in [12], 3.11 µM (active); in assay [14] it was 9.59 µM (active); in assay [15], 0.478 µM (active). In addition, the EC50 in assay [16] was 5.47 µM (inconclusive). The IC50 in [6] was > 80 µM (inactive); in assay [13], > 67.5 µM (inactive); in assay [17], 44.7 µM (inactive); in assay [19] it was > 66 µM (inactive). In addition, the AC50 in assay [8] is 2.94 µM (active); in [9] it was 8.44 µM (active); in assay [10] it was 16 µM (inactive); in assay [18], 0.87 µM (active).
Regarding `COc1ccc(-c2cc(C(=O)Nc3ccc(S(=O)(=O)Nc4onc(C)c4C)cc3)c3ccccc3n2)cc1`, the EC50 in [20], in assay [23] and in [24] was > 32 µM (inactive) each time. Further, the IC50 in [21] was > 32 µM (inactive); in assay [22], 17.3 µM (active); in assay [25], > 32 µM (inactive); in [26] it was 18.2 µM (inactive); in assay [27] it was 16.9 µM (inactive); in [28] it was 5.33 µM (active).
Consider `CCCC(=O)Nc1c2c(nc3ccccc13)N(c1ccccc1)CC2`, for which the EC50 in assay [1] was > 79.4 µM (not active); in assay [2] it was > 79.4 µM (inactive); in [3], > 79.4 µM (not active).
Turning to `CC(C)(C)c1ccc(-c2c(-c3nc4ccccc4[nH]3)n[nH]c2-c2ccccc2)cc1`, the EC50 in assay [20], in assay [23] and in assay [24] was > 32 µM (inactive) in each case. In addition, the IC50 in assay [21] was 13.9 µM (inactive); in assay [25], > 32 µM (inactive); in assay [26] it was 11.7 µM (inactive); in assay [27], 0.474 µM (active).
